Experimental data published in the NIST ThermoML archive (doi:10.1021/je900266h).

Test: refractive index (Na D-line) (dimensionless); wn = mass fraction of the nth substance listed
Settings: 101 kPa, Liquid, Standard Abbe refractometry

CCO [ethanol] + O
refractive index
Settings | 308.15 K | 318.15 K
w1 = 0.02468 | 1.33282 | 1.33124
w1 = 0.0538 | 1.33455 | 1.33301
w1 = 0.07815 | 1.33619 | 1.33449
w1 = 0.1014 | 1.33771 | 1.3358
w1 = 0.1249 | 1.33923 | 1.33736
w1 = 0.1528 | 1.34104 | 1.33895
w1 = 0.1778 | 1.34272 | 1.34054
w1 = 0.2036 | 1.34435 | 1.3418
w1 = 0.225 | 1.34551 | 1.34311
w1 = 0.247 | 1.34682 | 1.34418
w1 = 0.2699 | 1.3479 | 1.34519
w1 = 0.2955 | 1.34922 | 1.3464
w1 = 0.3241 | 1.35053 | 1.34772
w1 = 0.3468 | 1.35164 | 1.34853
w1 = 0.3723 | 1.35252 | 1.34932
w1 = 0.3959 | 1.35342 | 1.34997
w1 = 0.4255 | 1.35448 | 1.35103
w1 = 0.4462 | 1.35501 | 1.35147
w1 = 0.4735 | 1.35566 | 1.35212
w1 = 0.4969 | 1.3562 | 1.35251
w1 = 0.5239 | 1.35667 | 1.35301
w1 = 0.5458 | 1.35731 | 1.3533
w1 = 0.5709 | 1.3577 | 1.35369
w1 = 0.5972 | 1.35801 | 1.35385
w1 = 0.6203 | 1.35825 | 1.35417
w1 = 0.6467 | 1.35839 | 1.3543
w1 = 0.6694 | 1.35867 | 1.35455
w1 = 0.6959 | 1.35875 | 1.35454
w1 = 0.7187 | 1.35892 | 1.35469
w1 = 0.7494 | 1.35895 | 1.35471
w1 = 0.7672 | 1.35902 | 1.35475
w1 = 0.7993 | 1.35879 | 1.35484
w1 = 0.8187 | 1.35887 | 1.35478
w1 = 0.8451 | 1.3586 | 1.35457
w1 = 0.867 | 1.35844 | 1.35421
w1 = 0.9028 | 1.35782 | 1.35374
w1 = 0.9235 | 1.35743 | 1.35333
w1 = 0.9481 | 1.35677 | 1.35255
w1 = 0.9752 | 1.3559 | 1.35171
w1 = 1 | 1.35477 | 1.35068
